The values that follow come from paper PMC3528769, “Comparative Study of the Fatty Acid Binding Process of a New FABP from Cherax quadricarinatus by Fluorescence Intensity, Lifetime and Anisotropy” (PLoS ONE, 2012).

One may read the IC50 as the concentration needed to halve the response being measured.

What all share (format): binding
In test [1] the target is T1, Cq-FABP (Cherax quadricarinatus, UniProt L0I6Z9). Put plainly: Time-resolved Trp fluorescence lifetime (single-photon counting) with ANS and PA. The note with it: for FRET efficiency: from lifetimes. Here is the method: The distribution of fluorescence lifetimes of tryptophan was determined by monitoring the intensity decay, I(t), using the single-photon counting technique [27]–[31]. Briefly, the excitation light pulse source was a Ti:sapphire laser (Mai Tai femtosecond laser, Spectra Physics, Mountain View, CA, USA) associated with a third harmonic generator tuned to 296 nm. The laser frequency was reduced from 80 to 8 MHz using a pulse picker (Spectra Physics). Fluorescence emission was detected by a microchannel plate photomultiplier (Hamamatsu model R3809U-05) through a monochromator (ARC SpectraPro-150) set at 340 nm (Δλ = 15 nm) with the emission polarizer set at the magic angle (54.7°). A time-correlated single-photon counting SPC-430 card (Becker–Hickl, Berlin, Germany) was used for the acquisition. Experiments were performed at 25°C using 5 µM Cq-FABP in buffer C. The average fluorescence lifetime values (τm), as reported in Table 1, were calculated from the lifetime distributions recovered by the maximum entropy method, [29], [32]. For example, Cq-FABP alone was characterized by three fluorescence lifetimes (τ1 = 0.6 ns (6%), τ2 = 2.67 ns (53%), τ3 = 3.89 (41%); τm = 3.04 ns).
T1 sequence (L0I6Z9 entry or part of it): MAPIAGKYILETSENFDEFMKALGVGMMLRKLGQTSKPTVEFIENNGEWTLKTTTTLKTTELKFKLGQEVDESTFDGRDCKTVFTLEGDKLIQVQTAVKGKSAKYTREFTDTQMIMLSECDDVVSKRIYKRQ

Test [2] deals with T1, Cq-FABP. Put plainly: ANS fluorescence intensity titration and equilibrium displacement of ANS by fatty acids. The note with it: calculated from equilibrium displacement experiments using the fluorescence intensity of ANS (Eq. 1); read-out: Kd,FA. Here is the method:
Fluorescence emission spectra were measured at 25°C on a Cary-Eclipse spectrofluorimeter (Varian, CA, USA) equipped with a thermostated cell holder, using solutions (70 µl) placed in microcuvettes (pathlength, 0.3 cm). The binding of non-fluorescent fatty acids (PA, OA, LA, EPA and DHA) to Cq-FABP was measured indirectly by equilibrium displacement experiments using ANS as a fluorescent probe, either by measuring the fluorescence emission of ANS or by measuring the FRET between tryptophan and ANS, resulting in the quenching of donor fluorescence. The excitation wavelength was then set at 296 or 350 nm for tryptophan or ANS, respectively; the slit widths and PMT voltage were adjusted to optimize the fluorescence signal at 25°C. For titration experiments, the fluorescence emission spectrum of tryptophan or ANS was measured and the integrated fluorescence signal of tryptophan (315–360 nm) or ANS (440–600 nm) was calculated. For samples containing high concentrations of ANS, the inner-filter effect was not negligible and was corrected. UV-visible absorption spectra were carried out on a Uvikon XL spectrophotometer.
The equilibrium dissociation constant (Kd,FA) relative to the binding of fatty acids (FA) to Cq-FABP was determined by competition experiments using ANS displacement and linear regression of the following relationship: [drawing 1] (1) where Kd,ANS is the dissociation constant relative to the binding of ANS to the fatty acid binding site, Kd ^app ,ANS is the apparent dissociation constant of ANS obtained in the presence of a given fatty acid concentration.

Test [3] deals with T1, Cq-FABP. Nature of the test: BODIPY-C16 steady-state fluorescence anisotropy titration and competition. The note with it: for Kd: read-out: Kd,FA. On the procedure: The binding of 4,4-difluoro-5, 7-dimethyl-4-bora-3a, 4a-diaza-s-indacene-3-hexadecanoic acid (BODIPY-C16) to Cq-FABP was investigated by measuring the steady-state fluorescence anisotropy parameter using a Beacon instrument (PanVera, Madison, USA), in a cell thermostatically held at 25°C. The excitation and emission bandpass filters were centered at 488 nm (±6 nm) and 525 nm (±15 nm), respectively. Titration experiments were performed in buffer C (supplemented with 10% DMSO (v/v)) by maintening a constant concentration of BODIPY-C16 (200 nM) and by adding increasing concentrations of Cq-FABP. Using a vertical direction for the polarized excitation source, the steady-state fluorescence anisotropy (r) was calculated according to: [drawing 3] (3) where IV and IH correspond to the parallel (vertical) and perpendicular (horizontal) fluorescence emission intensity components, respectively. The fraction of BODIPY-C16/Cq-FABP complexes (i.e. the fraction of BODIPY-C16 bound to Cq-FABP), fb, was calculated using the following relationship: [drawing 4] (4) where r is the measured fluorescence anisotropy value, rf and rb correspond to the fluorescence anisotropy values of free BODIPY-C16 (ligand in the free state, measured in the absence of Cq-FABP) and Cq-FABP-bound BODIPY-C16 (ligand in the bound state, corresponding to the maximum anisotropy value found at the plateau), respectively. […] The Kd characterizing the BODIPY-C16/Cq-FABP complex (Kd,C16) was calculated by fitting the plot of fb versus [Cq-FABP] using the Graphpad Prism 5.0 software.
The fluorescence anisotropy-based assay was also used in competition experiments to calculate the Kd values (Kd,FA) characterizing non-fluorescent fatty acids. The measurement of the apparent Kd value characterizing the BODIPY-C16/Cq-FABP complex (Kd ^app ,C16) under different concentration conditions for the non-fluorescent FA allows the calculation of Kd,FA according to: [drawing 5] (5) where Kd,C16 corresponds to the Kd characterizing the BODIPY-C16/Cq-FABP complex (in the absence of any non-fluorescent FA) and Kd ^app ,C16 corresponds to the apparent dissociation constant obtained for a given concentration of non-fluorescent FA. The calculation of Kd,FA was also performed in an independent manner by measuring the IC50 value characterizing each non-fluorescent FA. In this approach, the number of complexes corresponding to [C16] = 200 nM and [Cq-FABP] = 5 µM was varied by increasing the concentration of non-fluorescent FA. The IC50 value corresponds to the concentration of non-fluorescent FA that displaces 50% of C16 from the fatty acid binding site of Cq-FABP and is related to Kd,FA through the Cheng-Prusoff relationship: [drawing 6] (6)
A general note: Fluorescence polarisation rises when a labelled molecule tumbles more slowly, as on binding a larger partner.

Setting [4] is: 5 µM Cq-FABP + 50 µM ANS + 70 µM PA.
The mark [5] stands for this setting: 5 µM Cq-FABP + 200 µM ANS + 70 µM PA.

Consider `CCCCCCCCCCCCCCCC(=O)O` [PA, Palmitic acid], for which the “Average fluorescence Lifetime, τm” value in test [1] (setting [4]) came to 2.77 ns; in test [1] (5 µM Cq-FABP + 70 µM PA), 2.96 ns; in test [1] (setting [5]) it was 2.34 ns. Further, the FRET efficiency was found to be 8.9% in test [1] (setting [4]) and 23% in test [1] (setting [5]). The Kd is 1100 ± 300 nM in test [2]; 1150 ± 200 nM in test [3] (calculated from the IC50 values, using Eq. 6, 200 nM BODIPY-C16, 5 µM Cq-FABP); 1600 ± 300 nM in test [3] (calculated from the Kd app,C16 values, using Eq. 5, 200 nM BODIPY-C16). Further, the IC50 in test [3] (200 nM BODIPY-C16, 5 µM Cq-FABP, read-out: IC50 (displaces 50% of BODIPY-C16 from the fatty acid binding site)) was 1170 nM.
